Holding throughout (type): in vivo
One test concerns Alternaria solani. Description: Alternaria test (tomatoes)/protective. Particulars: tomato plants, protective spray, evaluated 3 days after inoculation; for pest or weed control at 50 ppm: rate of application 50 ppm; for pest or weed control at 25 ppm: rate of application 25 ppm. The method, then: (§1) Solvent: 24.5 parts by weight of acetone
(§2) • 24.5 parts by weight of dimethylacetamide Emulsifier: 1 part by weight of alkylaryl polyglycol ether
(§3) To produce a suitable preparation of active compound, 1 part by weight of active compound is mixed with the stated amounts of solvent and emulsifier, and the concentrate is diluted with water to the desired concentration.
To test for protective activity, young plants are sprayed with the preparation of active compound at the stated rate of application. After the spray coating has dried on, the plants are inoculated with an aqueous spore suspension of Alternaria solani. The plants are then placed in an incubation cabinet at approximately 20° C. and a relative atmospheric humidity of 100%.
The test is evaluated 3 days after the inoculation. 0% means an efficacy which corresponds to that of the control while an efficacy of 100% means that no disease is observed.

The test system of a further test is Botrytis cinerea. Description: Botrytis test (beans)/protective. The conditions noted are these: bean plants, protective spray, lesion size 2 days after inoculation. The method, then: as §1, §2, §3
To test for protective activity, young plants are sprayed with the preparation of active compound. After the spray coating has dried on, 2 small pieces of agar covered with growth of Botrytis cinerea are placed on each leaf. The inoculated plants are placed in a darkened chamber at 20° C. and a relative atmospheric humidity of 100%.
2 days after the inoculation, the size of the lesions on the leaves is evaluated. 0% means an efficacy which corresponds to that of the control, while an efficacy of 100% means that no disease is observed.

A further test has as its system Phytophthora infestans. Particulars: tomato plants, protective spray, evaluated 3 days after inoculation.
The next test concerns Venturia inaequalis. Description: Venturia test (apples)/protective. Particulars: apple plants, protective spray, rate of application 100 ppm, evaluated 10 days after inoculation. The method, then:
as §1, §2, §3
To test for protective activity, young plants are sprayed with the preparation of active compound at the stated rate of application. After the spray coating has dried on, the plants are inoculated with an aqueous conidia suspension of the causal agent of apple scab (Venturia inaequalis) and then remain for 1 day in an incubation cabinet at approximately 20° C. and a relative atmospheric humidity of 100%.
The plants are then placed in a greenhouse at approximately 21° C. and a relative atmospheric humidity of approximately 90%.
The test is evaluated 10 days after the inoculation. 0% means an efficacy which corresponds to that of the control, while an efficacy of 100% means that no disease is observed.

Where [1] appears, read: Alternaria solani, 72 h, read-out: Efficacy in %.
[2] abbreviates: Alternaria solani, 72 h, rate of application 10 ppm, read-out: Efficacy in %.

Counter-ions that a name gives are not always drawn. Like-named read-outs stand apart in the source and are kept apart here.

For `Cc1nn(C)c(F)c1C(=O)Nc1ccccc1C(C)CC(C)C` (stereo not drawn) [N-[2-(1,3-dimethylbutyl)phenyl]-5-fluoro-1,3-dimethyl-1H-pyrazole-4-carboxamide], the pest or weed control at 1 ppm with Alternaria solani (Alternaria solani, 72 h, rate of application 1 ppm, read-out: Efficacy in %) worked out at 18%.
Molecule `CO/C=C(/C(=O)OC)c1ccccc1Oc1cc(Oc2ccccc2C#N)ncn1` [azoxystrobin] showed an Efficacy in % with Alternaria solani (rate of application 10 ppm) of 15%.
Take `Cn1cc(C(=O)Nc2ccc(F)cc2-c2ccc(Cl)c(Cl)c2)c(C(F)F)n1` [bixafen, N-(3′,4′-dichloro-5-fluorobiphenyl-2-yl)-3-(difluoromethyl)-1-methyl-1H-pyrazole-4-carboxamide]: the pest or weed control at 1.25 ppm in the test on Alternaria solani (Alternaria solani, 72 h, rate of application 1.25 ppm, read-out: Efficacy in %) stood at 65%.
In turn, `O=C(Nc1ccccc1-c1ccc(Cl)cc1)c1cccnc1Cl` [boscalid] had an Efficacy in % in the test on Botrytis cinerea (rate of application 5 ppm) of 21%.
With `N#Cc1c(Cl)c(Cl)c(Cl)c(C#N)c1Cl` [chlorothalonil], the Efficacy in % in the test with Phytophthora infestans (rate of application 25 ppm) amounted to 44%. For the same molecule, the pest or weed control at 50 ppm in the test on Alternaria solani (setting [1]) was 71%.
Consider `CN/C(=N\[N+](=O)[O-])NCc1cnc(Cl)s1` [clothianidin], for which the Efficacy in % with Venturia inaequalis stood at 66%.
For the molecule `CCNC(=O)NC(=O)/C(C#N)=N/OC` [cymoxanil], in the test on Venturia inaequalis, the Efficacy in % was found to be 23%. In addition, the pest or weed control at 50 ppm in the test with Alternaria solani (setting [1]) was 23%.
In the test with Botrytis cinerea (rate of application 10 ppm), `O=[N+]([O-])c1cc(C(F)(F)F)c(Cl)c([N+](=O)[O-])c1Nc1ncc(C(F)(F)F)cc1Cl` [fluazinam] showed an Efficacy in % of 79%.
Take `N#Cc1c[nH]cc1-c1cccc2c1OC(F)(F)O2` [fludioxonil]: in the test on Botrytis cinerea (rate of application 5 ppm), the Efficacy in % is reported as 45%.
On to `CO/N=C(/C1=NOCCO1)c1ccccc1Oc1ncnc(Oc2ccccc2Cl)c1F` [fluoxastrobin], for which the pest or weed control at 10 ppm with Alternaria solani (setting [2]) worked out at 15%.
With `CCCCCOC(=O)Nc1cccc(CON=C(c2ccccc2)c2nnnn2C)n1` [formula 1, pentyl {6-[({[(1-methyl-1H-tetrazol-5-yl)(phenyl)methylidene]amino}oxy)methyl]pyridin-2-yl}carbamate], the Efficacy in % was 47% with Phytophthora infestans (rate of application 0.25 ppm); 57% in the test with Phytophthora infestans (rate of application 0.5 ppm); 77% in the test on Phytophthora infestans (rate of application 1 ppm); 8% in the test with Venturia inaequalis; 4% in the test on Botrytis cinerea (rate of application 50 ppm); 4% in the test with Botrytis cinerea (rate of application 100 ppm). Besides, the pest or weed control at 5 ppm in the test with Alternaria solani (Alternaria solani, 72 h, rate of application 5 ppm, read-out: Efficacy in %) came out at 0%. Moreover, in the test on Alternaria solani (setting [2]), the pest or weed control at 10 ppm was 0%. Further, in the test on Alternaria solani (setting [1]), the pest or weed control at 25 ppm worked out at 0%. In the test with Alternaria solani (setting [1]), the pest or weed control at 50 ppm was determined as 8%. Besides, the pest or weed control at 100 ppm in the test with Alternaria solani (Alternaria solani, 72 h, rate of application 100 ppm, read-out: Efficacy in %) worked out at 0%.
In the case of `CCO[PH](=O)O` [fosetyl-Al], in the test with Phytophthora infestans (rate of application 10 ppm), the Efficacy in % was determined as 0%.
On to `O=[N+]([O-])NC1=NCCN1Cc1ccc(Cl)nc1` [imidacloprid], for which the Efficacy in % in the test on Venturia inaequalis stood at 4%. In addition, the pest or weed control at 25 ppm in the test on Alternaria solani (setting [1]) is 0%.
`CC(C)NC(=O)N1CC(=O)N(c2cc(Cl)cc(Cl)c2)C1=O` [iprodione]: the Efficacy in % in the test with Botrytis cinerea (rate of application 100 ppm) stood at 66%.
`Cc1ccc(C(C)NC(=O)[C@@H](NC(=O)OC(C)C)C(C)C)cc1` (stereo partly drawn) [iprovalicarb] displayed an Efficacy in % in the test on Phytophthora infestans (rate of application 1 ppm) of 16%.
The molecule `CCCOC(=O)NCCCN(C)C` [propamocarb-HCl] registered an Efficacy in % with Venturia inaequalis of 4%. The pest or weed control at 50 ppm in the test on Alternaria solani (setting [1]) stood at 38%.
On to `OC(Cc1ccccc1Cl)(Cn1nc[nH]c1=S)C1(Cl)CC1` (stereo not drawn) [prothioconazole], for which, in the test with Alternaria solani (Alternaria solani, 72 h, rate of application 2.5 ppm, read-out: Efficacy in %), the pest or weed control at 2.5 ppm came to 23%.
With `COC(=O)N(OC)c1ccccc1COc1ccn(-c2ccc(Cl)cc2)n1` [pyraclostrobin], the pest or weed control at 10 ppm in the test on Alternaria solani (setting [2]) is 45%.
On the same count and under the same terms, next, `CC(C)(C)C(O)(CCc1ccc(Cl)cc1)Cn1cncn1` (stereo not drawn) [tebuconazole]: 55%; `CON=C(C(=O)OC)c1ccccc1CON=C(C)c1cccc(C(F)(F)F)c1` [trifloxystrobin]: 35%.
In the test with Phytophthora infestans (rate of application 10 ppm), mancozeb had an Efficacy in % of 0%.
In turn, propineb [Ppopineb] yielded an Efficacy in % with Phytophthora infestans (rate of application 10 ppm) of 0%.

Values taken from patent US10188106B2 (priority 2008, dated 2019).
